We go through 1 molecule from publication PMC4104029, “Mechanism of Action of Compound-13: An α1-Selective Small Molecule Activator of AMPK” (Chemistry & Biology, 2014).

This test has as its system panel of 138 protein kinases. Briefly: Kinase inhibition screen. It is filed as biochemical. Conditions: 10 μM. As for the experimental part:
Supplemental Figure Legends:
Figure S1, related to Figures 1-3. Subunit composition of AMPK preparations used in this study. (A) Heterotrimeric AMPK complexes (10 ng) produced in both Sf9 (Sigma and Signalchem) and E.coli (in our laboratory) were analysed by Western blotting using isoform specific antibodies. Note that both the α2/α1-HOOK and α2/α1-LOOP chimeras are no longer recognised by the anti-α2 antibody as the epitope has been replaced (see Fig S4). (B) Heterotrimeric AMPK α2/α1 chimeric complexes expressed in E.coli (2 μg) were separated by SDS-PAGE and stained with Coomassie G-250. Arrows indicate the position of the […]
Figure S2, related to Figure 1. C2 has negligible effects on a panel of 138 protein kinases.
Kinase inhibition screen was performed by the International Centre for Kinase profiling (Dundee). Assays were performed in duplicate using 10 µM C2 and are representative of two independent screens. Results are shown in rank order as mean % activity compared with controls in the absence of compound ± SD. […]
Figure S3, related to Figure 2. […] Results are expressed as mean Pi incorporated in nmol.min-1.mg-1 ± SD. […] Results are expressed as fold increase in activity relative to controls in the absence of compound ± SD.
(E) C2 and AMP displace a GST-AMPKγ2 subunit fusion from ATP-γ-Sepharose. […] The presence of eluted AMPKγ2 was analysed by SDS-PAGE and staining with colloidal Coomassie. […]

SMILES strings stand for the structures.

Regarding `O=P(O)(O)c1ccc(-c2cc(O)on2)o1` [Compound C2, 5-(5-hydroxyl-isoxazol-3-yl)-furan-2-phosphonic acid], for the setting “LKB1, CaMKKβ, and TAK1”, the “effect on upstream kinases of AMPK” value is given as “did not affect”. Besides, the “effect on kinase activity” value (includes AMPK-related kinase family) was “majority were not affected”.
